Reference: publication PMC6017563 (Molecules : A Journal of Synthetic Chemistry and Natural …, 2018)

Assays:
[1] = in vivo; conditions: rat; for half-life: plasma
Procedure: The PK parameters for each experimental group were estimated by one-compartmental analysis using WinNonlin® software (version 7.0, Pharsight®, a Certara™ Company, Princeton, NJ, USA).
For the vehicle-administered groups (Groups 2 and 5), the above dispersion solution was administered instead of the drug (Table 5). Blood samples were directly drawn from the right jugular vein at predetermined time intervals before administration and at 0.25, 1, 2, 4, 8 h, 1, 2, 3, 4, 5, 6, 7, 11, and 14 days after the drug administration. Approximately 300 μL of blood was collected periodically in heparinized tubes via the catheter and was immediately centrifuged at 12,000 g for 5 min and then stored at −80 °C until analysis.
After being shaken with a vortex mixer for 3 min and centrifuged at 10,000× g for 5 min at room temperature, the upper supernatant was transferred to a clean tube and mixed with 20 µL of acetic acid and 900 µL of methylene chloride by vortex-mixing for 3 min and centrifugation at 10,000× g for 5 min at room temperature. The aqueous upper sample aliquots (10 µL) were directly injected into the UPLC–MS/MS system. Analyses were performed with the following UPLC–MS/MS system: Acquity™ UPLC system (Waters Corp., Milford, MA, USA), Mass Spectrometer (Xevo™ TQ-S, Waters Corp.), HALO peptide ES-C18 column (2.1 mm × 100 mm, 2.7 µm particle size, Advanced Material Technology, Wilmington, DE, USA). The mobile phase consisted of 1% acetic acid in water and 1% acetic acid in acetonitrile with gradient at a flow rate of 0.2 mL/min.
The mass spectrometric detection was performed using an electrospray ionization (ESI) source in positive ionization mode. The optimization of MS parameters was accomplished as follows: capillary voltage, 2.9 kV; ion source temperature, 150 °C; desolvation temperature, 350 °C; flow rate of cone gas, 150 L/h; flow rate of desolation gas, 600 L/h; and pressure of argon gas, 4.5 × 10^−3 mbar, respectively. […] Data acquisition and analysis were performed by Masslynx 4.1 software (Waters Corp., Milford, CT, USA).
The PK and PD analysis was performed by non-compartmental and compartment analysis using WinNonlin® software (version 7.0, Pharsight®, a Certara™ Company, Princeton, NJ, USA). The maximum plasma concentration (Cmax) and the time to reach Cmax (Tmax) were measured by visual observation of the individual plasma concentration–time curve. The AUC0–∞ was integrated by the linear trapezoidal rule from time zero to the final measured concentration and was extrapolated from the final measured concentration to infinity. […] The elimination rate constant k is a value used to describe the rate at which the drug is removed from the biological system. The volume of distribution (Vd), which is the theoretical volume in biological fluid, was calculated as CL divided by the k, and the bioavailability (F) was estimated as the AUC0–∞ obtained from SC administration divided by the AUC0–∞, obtained from IV administration. AUEC could be estimated by numerical integration over all segments of the effect-time curve by the trapezoidal rule without extrapolation to infinity. Because the endogenous testosterone was used as a PD marker in this study, the AUEC value subtracted from the baseline AUEC was used for data analysis.
The PK–PD modeling was conducted to describe the PK–PD relationship, and to estimate model parameters using Berkeley Madonna software (ver. 8.3.14). Berkeley Madonna software is a useful tool for modeling and analysis of various biological systems by solving the various differential equations. […] Consequently, the PD model was established in two steps. First, the baseline model was developed by using the baseline profiles of the vehicle-administered control group. Second, the drug-effect model was established based on the parameters that were estimated from the baseline model.

[2] = system: testosterone in plasma; assay: Testosterone-suppressive effect (plasma testosterone, AUEC, PK-PD model), normal rats; format: in vivo; conditions: Wistar, baseline AUEC subtracted, mean ± SE, n = 5
Description: Leuprolide is a GnRH agonist for the treatment of prostate cancer which is a target disease in this study. In the label of the Lucrin depot, this is indicated for palliative treatment of advanced prostatic cancer. Therefore, we used the testosterone concentration as a PD marker of prostate cancer, and plasma testosterone is one of qualified biomarkers used as outcomes in the therapeutic area of oncology. Since most of the PD responses are expressed as a concentration profile of endogenous substances, it is difficult to calculate the value as a general trapezoidal rule. Scheff et al. introduced several methods for calculating AUEC when baselines differ. In this study, drug-specific AUEC was calculated by subtracting the baseline AUEC from the AUEC calculated by a general method, and these drug-specific AUECs were calculated by dividing them into positive AUECs and negative AUECs. […] There were significant differences between positive and negative AUEC in all experimental groups. When absolute values of positive and negative AUEC were compared, negative AUEC was more than three times higher. […] However, there was no significant difference in AUEC between each group on formulation, species and route of administration. This estimation of AUEC means that it could be used as a method for evaluating the formulation.
The PK–PD model, which describes the mechanism of negative feedback of leuprolide, was selected based on leuprolide mechanism characteristics and biomarker characteristics. […] The equations of the baseline model are as follows:(11) dR/dt = kin−kout·R (12) R0, wistar = 4.353 (13) R0,Iar:COP = 4.094 where kin and kout represent the apparent zero-order rate constant for the production of response and the first-order rate constant for the loss of response, respectively. These were estimated by curve fitting with the vehicle-administered group and used as the basic parameters of the drug-effect model described below (Group 2).
For this, several PD models were attempted, and the final PD model decided on was the tolerance model including the feedback compartment.
The plasma concentration of testosterone in plasma samples of each group was quantified using testosterone enzyme-linked immunosorbent assay (ELISA) kits (R&D Systems, Minneapolis, MN, USA). […]
Determination of the testosterone concentration was performed on using the validated Parameter^TM Testosterone Assay (R&D Systems, Minneapolis, MN, USA) and its process. […] The reaction was stopped when 50 μL of stop solution (2N sulfuric acid) was added, and the optical density of each well was measured using SynergyMX (BioTek, Winooski, VT, USA). All plasma samples were measured twice. […]

[3] = Group 1, leuprolide solution 0.1 mg/kg IV
[4] = Group 3, leuprolide solution 0.1 mg/kg SC

AUC(0-inf) ([1]; Wistar, in vivo, iv, 0.1 mg/kg): 0.105 ± 0.0173 µg·h/mL | AUC(0-t) ([1]; Wistar, in vivo, iv, 0.1 mg/kg): 0.103 ± 0.0169 µg·h/mL | C0 ([1]; Wistar, in vivo, iv, 0.1 mg/kg): 0.0971 ± 0.013 µg/mL | Vd ([1]; Wistar, in vivo, iv, 0.1 mg/kg): 0.193 ± 0.0542 L | clearance ([1]; Wistar, in vivo, iv, 0.1 mg/kg): 4.14 mL/min | AUC(0-inf) ([1]; Wistar, in vivo, sc, 0.1 mg/kg): 0.0533 ± 0.00996 µg·h/mL | AUC(0-t) ([1]; Wistar, in vivo, sc, 0.1 mg/kg): 0.0512 ± 0.00956 µg·h/mL | Cmax ([1]; Wistar, in vivo, sc, 0.1 mg/kg): 0.0415 ± 0.00461 µg/mL | bioavailability ([1]; Wistar, in vivo, sc, 0.1 mg/kg): 50.6% | half-life ([1]; Wistar, iv, 0.1 mg/kg): 31.2 ± 6 min | half-life ([1]; Wistar, sc, 0.1 mg/kg): 39.6 ± 1.8 min | CL ([1]; in vivo): 514.46 ± 40.10 mL/h | F (bioavailability) ([1]; in vivo): 50.6% | Vd ([1]; in vivo): 0.4874 ± 0.02902 L
SMILES: CCNC(=O)[C@@H]1CCCN1C(=O)[C@H](CCCNC(=N)N)NC(=O)[C@H](CC(C)C)NC(=O)[C@@H](CC(C)C)NC(=O)[C@H](Cc1ccc(O)cc1)NC(=O)[C@H](CO)NC(=O)[C@H](Cc1c[nH]c2ccccc12)NC(=O)[C@H](Cc1c[nH]cn1)NC(=O)[C@@H]1CCC(=O)N1 [leuprolide, Leuprolide (Pyr-His-Trp-Ser-Tyr-D-Leu-Leu-Arg-Pro-NHEt)]
Negative AUEC (drug-specific, testosterone-suppressive effect) [2, 3]: −1404.30 ± 287.31 | Positive AUEC (drug-specific, testosterone flare-up effect) [2, 3]: 208.24 ± 52.30 | Negative AUEC (drug-specific, testosterone-suppressive effect) [2, 4]: −775.98 ± 289.13 | Positive AUEC (drug-specific, testosterone flare-up effect) [2, 4]: 220.87 ± 39.56
